± gives the expanded uncertainty stated by the source.
Settings: 101.3 kPa, Liquid, Vibrating tube method

CN(C)CCO [2-(N,N-dimethylamino)ethanol]
Settings	mass density [kg/m3]
293.15 K	888.2 ± 5.2
298.15 K	884 ± 5.2
303.15 K	879.8 ± 5.2
308.15 K	875.5 ± 5.2
313.15 K	871.2 ± 5.2
318.15 K	866.8 ± 5.2
323.15 K	862.4 ± 5.2
328.15 K	858 ± 5.2
333.15 K	853.5 ± 5.2
338.15 K	849 ± 5.2
343.15 K	844.4 ± 5.2

— the NIST ThermoML archive (doi:10.1021/acs.jced.6b00888)
